Measured values published in paper PMC4826227, “A pyrazolopyran derivative preferentially inhibits the activity of human cytosolic serine hydroxymethyltransferase and induces cell death in lung cancer cells” (Oncotarget, 2015).

What was measured:
SHMT1 = target: T1, SHMT1 (Homo sapiens, UniProt P34896); assay: Spectrophotometric quinonoid-intermediate competitive binding assay on purified recombinant SHMT1; type: biochemical; conditions: purified SHMT1 5.5 μM, glycine 3.0 mM, 20 μM H4PteGlu, read-out: estimated inhibition constants (IC50)
T1 construct: made in house
T1 sequence (P34896 1-483): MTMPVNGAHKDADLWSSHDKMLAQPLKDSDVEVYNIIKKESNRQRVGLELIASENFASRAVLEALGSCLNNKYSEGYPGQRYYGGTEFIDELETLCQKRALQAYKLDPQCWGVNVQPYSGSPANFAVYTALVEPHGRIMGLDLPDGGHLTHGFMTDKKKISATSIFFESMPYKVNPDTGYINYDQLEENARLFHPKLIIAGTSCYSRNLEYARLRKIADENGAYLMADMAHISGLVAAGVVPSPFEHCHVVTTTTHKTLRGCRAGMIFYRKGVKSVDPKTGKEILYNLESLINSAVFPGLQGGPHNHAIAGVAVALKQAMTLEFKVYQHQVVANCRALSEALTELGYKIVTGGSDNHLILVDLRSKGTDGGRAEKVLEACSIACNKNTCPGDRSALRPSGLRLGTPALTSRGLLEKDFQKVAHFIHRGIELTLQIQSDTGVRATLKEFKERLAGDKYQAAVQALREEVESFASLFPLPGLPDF
Protocol: (§1) Initially, compounds 2.2 and 2.12 (Figure 1) were tested on purified recombinant SHMT1 and SHMT2 isoforms using a spectrophotometric assay, in which the inhibitors and H4PteGlu compete for binding to the same site of the enzyme. Both isozymes (5.5 μM) were incubated with a saturating concentration of glycine (3.0 mM), in the presence of 20 μM H4PteGlu and a varying concentration of either compound 2.12 or 2.2. The activity of the enzyme was calculated from the spectrophotometric measurement of the quinonoid intermediate that develops when both glycine and H4PteGlu bind to SHMT [20]. […]
(§2) Figure 2 Activity inhibition on purified SHMTs by compound 2.12 The activity of cytosolic (black symbols) and mitochondrial (red symbols) SHMT isoforms was measured in the presence of increasing concentrations of compound 2.12. […]
(§3) Inhibition of SHMT activity by compound 2.12 was tested using competitive binding assays in which the antifolate competes for binding with H4PteGlu. […] Therefore, absorbance at 500 nm is proportional to the fraction of enzyme present as ternary complex. […] The effect of DMSO concentration on quinonoid development was analysed and found to be negligible up to 20% DMSO (v/v). […] After a rapid manual mixing, the absorbance change at 500 nm was measured. […]

SHMT2 = target: T2, SHMT2 (Homo sapiens, UniProt P34897); assay: Spectrophotometric quinonoid-intermediate competitive binding assay on purified recombinant SHMT2; type: biochemical; conditions: purified SHMT2 5.5 μM, glycine 3.0 mM, 20 μM H4PteGlu, read-out: estimated inhibition constants (IC50)
T2 construct: made in house
T2 sequence (P34897 30-504): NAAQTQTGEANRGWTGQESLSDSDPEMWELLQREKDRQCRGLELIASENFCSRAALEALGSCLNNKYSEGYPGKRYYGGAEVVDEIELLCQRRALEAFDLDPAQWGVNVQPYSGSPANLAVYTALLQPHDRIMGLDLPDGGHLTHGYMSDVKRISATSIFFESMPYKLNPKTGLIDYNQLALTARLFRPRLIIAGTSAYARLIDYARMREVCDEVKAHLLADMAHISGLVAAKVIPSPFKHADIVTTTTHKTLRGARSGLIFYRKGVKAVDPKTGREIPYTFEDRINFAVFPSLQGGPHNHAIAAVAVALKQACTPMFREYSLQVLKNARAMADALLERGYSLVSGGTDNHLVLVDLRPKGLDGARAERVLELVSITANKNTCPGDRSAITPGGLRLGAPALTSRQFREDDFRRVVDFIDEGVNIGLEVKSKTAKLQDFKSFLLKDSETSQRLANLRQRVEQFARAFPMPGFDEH
Protocol: as §1, §2, §3

IC50 (SHMT1): 154 ± 14.4 µM | IC50 (SHMT2): 263 ± 48 µM
Structure (SMILES): CCC1(c2ccc(F)cc2)C(C#N)=C(N)Oc2[nH]nc(C)c21 (centres unmarked) [compound 2.2]
